From PubChem BioAssay (NCI)
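All cell lines were grown in 96-well plates and treated with compound for 48 hours. GI50 = concentration required for 50% inhibition of growth. At the TGI there is no net growth.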

What was measured:
Assay in all cases: DTP human tumour cell line panel, 48 h
786-0 renal = tested on: 786-0 renal
SK-MEL-2 melanoma = tested on: SK-MEL-2 melanoma
CAKI-1 renal = tested on: CAKI-1 renal
RPMI-8226 leukemia = tested on: RPMI-8226 leukemia
NCI-H460 lung = tested on: NCI-H460 lung
SNB-75 CNS = tested on: SNB-75 CNS
OVCAR-3 ovarian = tested on: OVCAR-3 ovarian
SK-MEL-28 melanoma = tested on: SK-MEL-28 melanoma
K-562 leukemia = tested on: K-562 leukemia
UO-31 renal = tested on: UO-31 renal
M14 melanoma = tested on: M14 melanoma
SN12C renal = tested on: SN12C renal
HCT-15 colon = tested on: HCT-15 colon
OVCAR-8 ovarian = tested on: OVCAR-8 ovarian
SW-620 colon = tested on: SW-620 colon
U251 CNS = tested on: U251 CNS
HT29 colon = tested on: HT29 colon
SK-MEL-5 melanoma = tested on: SK-MEL-5 melanoma
UACC-257 melanoma = tested on: UACC-257 melanoma
SR leukemia = tested on: SR leukemia
TK-10 renal = tested on: TK-10 renal
SK-OV-3 ovarian = tested on: SK-OV-3 ovarian
MDA-MB-231 breast = tested on: MDA-MB-231 breast
OVCAR-5 ovarian = tested on: OVCAR-5 ovarian
ACHN renal = tested on: ACHN renal
T-47D breast = tested on: T-47D breast
HCT-116 colon = tested on: HCT-116 colon
LOX IMVI melanoma = tested on: LOX IMVI melanoma
BT-549 breast = tested on: BT-549 breast
SF-539 CNS = tested on: SF-539 CNS
IGROV1 ovarian = tested on: IGROV1 ovarian
KM12 colon = tested on: KM12 colon
SNB-19 CNS = tested on: SNB-19 CNS
HCC-2998 colon = tested on: HCC-2998 colon
UACC-62 melanoma = tested on: UACC-62 melanoma
NCI-H522 lung = tested on: NCI-H522 lung
A549 NSCLC = tested on: A549 NSCLC
MDA-MB-435 = tested on: MDA-MB-435
HL-60(TB) leukemia = tested on: HL-60(TB) leukemia
PC-3 prostate = tested on: PC-3 prostate
A498 renal = tested on: A498 renal
NCI/ADR-RES ovarian = tested on: NCI/ADR-RES ovarian
MOLT-4 leukemia = tested on: MOLT-4 leukemia
HOP-62 NSCLC = tested on: HOP-62 NSCLC
MALME-3M melanoma = tested on: MALME-3M melanoma
MCF7 breast = tested on: MCF7 breast
CCRF-CEM leukemia = tested on: CCRF-CEM leukemia
RXF 393 renal = tested on: RXF 393 renal
DU-145 prostate = tested on: DU-145 prostate
NCI-H226 lung = tested on: NCI-H226 lung
SF-268 CNS = tested on: SF-268 CNS
NCI-H23 lung = tested on: NCI-H23 lung
HS 578T breast = tested on: HS 578T breast
COLO 205 colon = tested on: COLO 205 colon
OVCAR-4 ovarian = tested on: OVCAR-4 ovarian
SF-295 CNS = tested on: SF-295 CNS

O=C1OC(=O)C(c2c[nH]c3ccccc23)=C1c1c[nH]c2ccccc12
GI50 (786-0 renal): > 25 µM
TGI (786-0 renal): > 25 µM
GI50 (SK-MEL-2 melanoma): > 25 µM
TGI (SK-MEL-2 melanoma): > 25 µM
GI50 (CAKI-1 renal): > 25 µM
TGI (CAKI-1 renal): > 25 µM
GI50 (RPMI-8226 leukemia): > 25 µM
TGI (RPMI-8226 leukemia): > 25 µM
GI50 (NCI-H460 lung): > 25 µM
TGI (NCI-H460 lung): > 25 µM
GI50 (SNB-75 CNS): > 25 µM
TGI (SNB-75 CNS): > 25 µM
GI50 (OVCAR-3 ovarian): > 25 µM
TGI (OVCAR-3 ovarian): > 25 µM
GI50 (SK-MEL-28 melanoma): > 25 µM
TGI (SK-MEL-28 melanoma): > 25 µM
GI50 (K-562 leukemia): > 25 µM
TGI (K-562 leukemia): > 25 µM
GI50 (UO-31 renal): 8.73 µM
TGI (UO-31 renal): > 25 µM
GI50 (M14 melanoma): > 25 µM
TGI (M14 melanoma): > 25 µM
GI50 (SN12C renal): > 25 µM
TGI (SN12C renal): > 25 µM
GI50 (HCT-15 colon): > 25 µM
TGI (HCT-15 colon): > 25 µM
GI50 (OVCAR-8 ovarian): > 25 µM
TGI (OVCAR-8 ovarian): > 25 µM
GI50 (SW-620 colon): > 25 µM
TGI (SW-620 colon): > 25 µM
GI50 (U251 CNS): > 25 µM
TGI (U251 CNS): > 25 µM
GI50 (HT29 colon): > 25 µM
TGI (HT29 colon): > 25 µM
GI50 (SK-MEL-5 melanoma): > 25 µM
TGI (SK-MEL-5 melanoma): > 25 µM
GI50 (UACC-257 melanoma): > 25 µM
TGI (UACC-257 melanoma): > 25 µM
GI50 (SR leukemia): > 25 µM
TGI (SR leukemia): > 25 µM
GI50 (TK-10 renal): > 25 µM
TGI (TK-10 renal): > 25 µM
GI50 (SK-OV-3 ovarian): > 25 µM
TGI (SK-OV-3 ovarian): > 25 µM
GI50 (MDA-MB-231 breast): 14.5 µM
TGI (MDA-MB-231 breast): > 25 µM
GI50 (OVCAR-5 ovarian): > 25 µM
TGI (OVCAR-5 ovarian): > 25 µM
GI50 (ACHN renal): > 25 µM
TGI (ACHN renal): > 25 µM
GI50 (T-47D breast): > 25 µM
TGI (T-47D breast): > 25 µM
GI50 (HCT-116 colon): > 25 µM
TGI (HCT-116 colon): > 25 µM
GI50 (LOX IMVI melanoma): > 25 µM
TGI (LOX IMVI melanoma): > 25 µM
GI50 (BT-549 breast): > 25 µM
TGI (BT-549 breast): > 25 µM
GI50 (SF-539 CNS): > 25 µM
TGI (SF-539 CNS): > 25 µM
GI50 (IGROV1 ovarian): > 25 µM
TGI (IGROV1 ovarian): > 25 µM
GI50 (KM12 colon): > 25 µM
TGI (KM12 colon): > 25 µM
GI50 (SNB-19 CNS): > 25 µM
TGI (SNB-19 CNS): > 25 µM
GI50 (HCC-2998 colon): > 25 µM
TGI (HCC-2998 colon): > 25 µM
GI50 (UACC-62 melanoma): > 25 µM
TGI (UACC-62 melanoma): > 25 µM
GI50 (NCI-H522 lung): > 25 µM
TGI (NCI-H522 lung): > 25 µM
GI50 (A549 NSCLC): > 25 µM
TGI (A549 NSCLC): > 25 µM
GI50 (MDA-MB-435): > 25 µM
TGI (MDA-MB-435): > 25 µM
GI50 (HL-60(TB) leukemia): > 25 µM
TGI (HL-60(TB) leukemia): > 25 µM
GI50 (PC-3 prostate): > 18 µM
TGI (PC-3 prostate): > 25 µM
GI50 (A498 renal): > 25 µM
TGI (A498 renal): > 25 µM
GI50 (NCI/ADR-RES ovarian): > 25 µM
TGI (NCI/ADR-RES ovarian): > 25 µM
GI50 (MOLT-4 leukemia): > 25 µM
TGI (MOLT-4 leukemia): > 25 µM
GI50 (HOP-62 NSCLC): > 25 µM
TGI (HOP-62 NSCLC): > 25 µM
GI50 (MALME-3M melanoma): > 25 µM
TGI (MALME-3M melanoma): > 25 µM
GI50 (MCF7 breast): > 25 µM
TGI (MCF7 breast): > 25 µM
GI50 (CCRF-CEM leukemia): > 25 µM
TGI (CCRF-CEM leukemia): > 25 µM
GI50 (RXF 393 renal): > 25 µM
TGI (RXF 393 renal): > 25 µM
GI50 (DU-145 prostate): > 25 µM
TGI (DU-145 prostate): > 25 µM
GI50 (NCI-H226 lung): > 25 µM
TGI (NCI-H226 lung): > 25 µM
GI50 (SF-268 CNS): > 25 µM
TGI (SF-268 CNS): > 25 µM
GI50 (NCI-H23 lung): > 25 µM
TGI (NCI-H23 lung): > 25 µM
GI50 (HS 578T breast): > 25 µM
TGI (HS 578T breast): > 25 µM
GI50 (COLO 205 colon): > 25 µM
TGI (COLO 205 colon): > 25 µM
GI50 (OVCAR-4 ovarian): > 25 µM
TGI (OVCAR-4 ovarian): > 25 µM
GI50 (SF-295 CNS): > 25 µM
TGI (SF-295 CNS): > 25 µM
